US11712438B2, “Phenyl derivatives as PGE2 receptor modulators” (IDORSIA PHARMACEUTICALS LTD, priority 2017, dated 2023)

Experiments:
Test in all cases: cell-based
EP2 = EP2 (Homo sapiens, UniProt P43116);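 further: SF295 glioblastoma cells with endogenous EP2 only, PGE2-stimulated cAMP accumulation read by HTRF competitive immunoassay, 45 min pre-incubation then 30 min at room temperature, IBMX in buffer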
Experimental: The antagonistic activities of the compounds of formula (I) on the EP2 and EP4 receptors are also determined in accordance with the following experimental method.
Human tumor cell lines expressing endogenously either EP4 or EP2 are used and cAMP accumulation in cells upon PGE2 stimulation is monitored. SF295 glioblastoma cells express high endogenous EP2 and no EP4,whereas BT549 breast cancer cells, express high endogenous EP4 levels and very low EP2 levels.
(§1) As a detection method for cAMP the HTRF (homogeneous time resolved fluorescence) Cisbio kit (HTRF cAMP dynamic 2 kit 20′000 tests Cisbio Cat. #62AM4PEC) was used, which is based on a competitive immunoassay using a Cryptate-labeled anti-cAMP antibody and d2-labeled cAMP. Native cAMP produced by cells or unlabeled cAMP (for the standard curve) compete with exogenously added d2-labeled cAMP (acceptor) for binding to monoclonal anti-cAMP-Eu3+ Cryptate (donor). A FRET signal (Fluorescence Resonance Energy Transfer) is obtained only if the labeled anti-cAMP antibody binds the d2 labelled cAMP, thus the specific signal (i.e. energy transfer) is inversely proportional to the concentration of cAMP in the standard or sample.
The SF295 cells (NCI/No. 0503170) are detached from culture dishes with a cell dissociation buffer (Invitrogen, 13151-014), and collected in growing medium (GM: RPM11640 (Invitrogen 21875)/10% FCS, 1% Penicilin/streptomycin). Cells are counted washed and resuspended in assay buffer (AB; HBSS, 20 mM HEPES, 0.2% BSA; 2 mM IBMX). 4′000 cells in 5 μl of AB are seeded per well of a small volume 384 well plate (black with flat bottom, Greiner 784076).
PGE2 (Cayman 14010, stock solution: 750 in DMSO) is used as agonist at 75 nM final concentration, corresponding to EC80.
Two point five microliters of diluted compounds are transferred into the assay plate. Plate is pre-incubated 45 minutes at room temperature. Subsequently, 2.5 microliters of PGE2 (final conc. 75 nM) are transferred into the assay plate. Plate is incubated 30 minutes at room temperature.
(§2) For each compound concentration the percentage of cAMP compared to DMSO control value as average±STDEV (each concentration is measured in duplicate) is calculated.

EP4 = EP4 (Homo sapiens, UniProt P35408);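 further: inhibition of PGE2-evoked (6 nM) cAMP accumulation in BT549 breast cancer cells endogenously expressing EP4, cAMP read by HTRF competitive immunoassay after 30 min at room temperature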
Text: Human tumor cell lines expressing endogenously either EP4 or EP2 are used and cAMP accumulation in cells upon PGE2 stimulation is monitored.
as §1
The BT549 cells (NCI/No. 0507282) are detached from culture dishes with a cell dissociation buffer (Invitrogen, 13151-014), and collected in growing medium (GM: RPM11640 (Invitrogen 21875)/10% FCS, 1% Penicilin/streptomycin). Cells are counted washed and resuspended in assay buffer (AB; HBSS, 20 mM HEPES, 0.2% BSA; 2 mM IBMX). 4′000 cells in 5 μl of AB are seeded per well of a small volume 384 well plate (black with flat bottom, Greiner 784076).
Stock solutions of test compounds are made at a concentration of 10 mM in DMSO, and serially diluted in DMSO to concentrations required for inhibition dose response curves (tested concentration range 30 μM-0.4 nM; 30 μM-0.015 nM or 1 μM-0.01 nM).
PGE2 (Cayman 14010, stock solution: 6 μM in DMSO) is used as agonist at 6 nM final concentration, corresponding to EC80.
Two point five microliters of diluted compounds are transferred into the assay plate. Plate is pre-incubated 45 minutes at room temperature. Subsequently, 2.5 microliters of PGE2 (final conc. 6 nM) are transferred into the assay plate. Plate is incubated 30 minutes at room temperature.
as §2
When compounds were measured multiple times, mean values are given.

PTRGER4 (EP4) = PTRGER4 (EP4) (Homo sapiens, UniProt P35408);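 further: assay plate preincubated 15 min at 37 °C, after which PGE2 was added at 20 nM final and incubation continued 120 min at 37 °C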
PTGER2 (EP2) = PTGER2 (EP2) (Homo sapiens, UniProt P43116)
Chain of PTGER2 (EP2) (P43116 whole entry): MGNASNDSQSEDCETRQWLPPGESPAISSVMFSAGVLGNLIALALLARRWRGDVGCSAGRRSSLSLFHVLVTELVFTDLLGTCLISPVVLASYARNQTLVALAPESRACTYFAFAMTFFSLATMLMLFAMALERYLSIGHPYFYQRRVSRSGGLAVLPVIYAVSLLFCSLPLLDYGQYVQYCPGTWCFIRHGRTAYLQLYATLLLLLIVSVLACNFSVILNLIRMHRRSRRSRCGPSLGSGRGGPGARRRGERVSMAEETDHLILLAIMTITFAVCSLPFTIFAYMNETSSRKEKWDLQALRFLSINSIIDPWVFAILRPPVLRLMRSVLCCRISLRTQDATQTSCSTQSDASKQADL

Chain of EP4 (P35408 whole entry): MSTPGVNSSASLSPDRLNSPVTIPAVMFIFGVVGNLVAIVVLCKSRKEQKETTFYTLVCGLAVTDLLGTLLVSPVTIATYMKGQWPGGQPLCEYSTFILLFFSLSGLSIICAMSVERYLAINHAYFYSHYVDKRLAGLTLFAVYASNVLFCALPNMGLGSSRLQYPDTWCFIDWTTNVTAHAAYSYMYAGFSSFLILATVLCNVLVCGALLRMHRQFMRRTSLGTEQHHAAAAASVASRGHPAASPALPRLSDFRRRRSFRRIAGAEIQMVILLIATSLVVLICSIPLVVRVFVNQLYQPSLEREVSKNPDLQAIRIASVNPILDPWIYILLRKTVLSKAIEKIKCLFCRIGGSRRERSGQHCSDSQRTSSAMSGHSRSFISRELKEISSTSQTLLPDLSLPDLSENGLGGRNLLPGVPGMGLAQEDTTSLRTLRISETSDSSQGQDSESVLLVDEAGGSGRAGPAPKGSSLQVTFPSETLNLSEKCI
Chain of PTRGER4 (EP4) (P35408 whole entry): as above
Chain of EP2 (P43116 whole entry): as the sequence (P43116 whole entry) above

Structure (SMILES) | IC50 (EP2) [nM] | IC50 (EP4) [nM] | IC50 (PTRGER4 (EP4)) [nM] | IC50 (PTGER2 (EP2)) [nM]
COc1cc(C(F)F)c(F)cc1CCNc1cc(-c2ccc(C(=O)O)c(OC3CCC3)c2)ncn1 [Example 184, 2-Cyclobutoxy-4-{6-[2-(4-difluoromethyl-5-fluoro-2-methoxy-phenyl)-ethylamino]pyrimidin-4-yl}-benzoic acid] | 630 | 250 | 140 | 127
CCOc1cc(-c2cc(NCCc3c(F)cc(Br)cc3F)ncn2)sc1-n1nn[nH]c1=O [Example 294, 1-(5-{6-[2-(4-Bromo-2,6-difluoro-phenyl)-ethylamino]-pyrimidin-4-yl}-3-ethoxy-thiophen-2-yl)-1,4-dihydro-tetrazol-5-one] | 47 | 22 | 18 | 27
CCOc1cc(-c2cc(NCCc3ccc(C)c(C)c3)ncn2)sc1C(=O)O [Example 68, 5-{6-[2-(3,4-Dimethyl-phenyl)-ethylamino]-pyrimidin-4-yl}-3-ethoxy-thiophene-2-carboxylic acid] | 165 | 25 | 33 | 145
CCOc1cc(-c2cc(NCCc3c(F)cc(Br)cc3F)ncn2)sc1Cc1noc(=O)[nH]1 [Example 138, 3-(5-{6-[2-(4-Bromo-2,6-difluoro-phenyl)-ethylamino]-pyrimidin-4-yl}-3-ethoxy-thiophen-2-ylmethyl)-[1,2,4]oxadiazol-5(4H)-one] | 123 | 247 | 130 | 34
CCCc1cc(-c2cc(NCCc3c(F)cc(Br)cc3F)ncn2)ccc1C(=O)O [Example 35, 4-{6-[2-(4-Bromo-2,6-difluoro-phenyl)-ethylamino]-pyrimidin-4-yl}-2-propyl-benzoic acid] | 86 | 433 | 242 | 109
CCc1cc(-c2cc(NCCc3c(F)cc(Br)cc3F)ncn2)sc1C(=O)O [Example 29, 5-{6-[2-(4-Bromo-2,6-difluoro-phenyl)-ethylamino]-pyrimidin-4-yl}-3-ethyl-thiophene-2-carboxylic acid] | 23 | 12 | 20 | 29
CCOc1cc(-c2cc(NCCc3c(F)cc(Br)cc3F)ncn2)sc1/C=C/C(=O)O [Example 47, (E)-3-(5-{6-[2-(4-Bromo-2,6-difluoro-phenyl)-ethylamino]-pyrimidin-4-yl}-3-ethoxy-thiophen-2yl)-acrylic acid] | 129 | 85 | 11 | 50
CCOc1cc(-c2cc(NCCc3ccc(OC(F)(F)F)cc3OC)ncn2)sc1C(=O)O [Example 210, 3-Ethoxy-5-{6-[2-(2-methoxy-4-trifluoromethoxy-phenyl)-ethylamino]-pyrimidin-4-yl}-thiophene-2-carboxylic acid] | 615 | 21 | 20 | 294
CCOc1cc(-c2cc(NCCc3c(OC)cc(Br)cc3OC)ncn2)sc1-c1noc(=O)[nH]1 [Example 88, 3-(5-{6-[2-(4-Bromo-2,6-dimethoxy-phenyl)-ethylamino]-pyrimidin-4-yl}-3-ethoxy-thiophen-2yl)-[1,2,4]oxadiazol-5(4H)-one] | 31 | 6 | 2 | 9
CCOc1cc(-c2cc(NCCc3ccc(Br)cc3)ncn2)sc1C(=O)O [Example 54, 5-{6-[2-(4-Bromo-phenyl)-ethylamino]-pyrimidin-4-yl}-3-ethoxy-thiophene-2-carboxylic acid] | 31 | 10 | 17 | 60
CCOc1cc(-c2cc(NCCc3ccc(Cl)c(Cl)c3C)ncn2)sc1C(=O)O [Example 181, 5-{6-[2-(3,4-Dichloro-2-methyl-phenyl)-ethylamino]-pyrimidin-4-yl}-3-ethoxy-thiophene-2-carboxylic acid] | 92 | 34 | 96 | 165
CCc1nc(-c2cc(NCCc3c(F)cc(Br)cc3F)ncn2)sc1C(=O)O [Example 149, 2-{6-[2-(4-Bromo-2,6-difluoro-phenyl)-ethylamino]-pyrimidin-4-yl}-4-ethyl-thiazole-5-carboxylic acid] | 67 | 73 | 43 | 199
CCCc1cc(-c2cc(NCCc3c(F)cc(Br)cc3F)ncn2)sc1CC(=O)O [Example 314, (5-{6-[2-(4-Bromo-2,6-difluoro-phenyl)-ethylamino]-pyrimidin-4-yl}-3-propyl-thiophen-2-yl)-acetic acid] | 169 | 27 | 61 | 55
O=C(O)c1ccc(-c2cc(NCCc3c(F)cc(Br)cc3F)ncn2)cc1OC1CC1 [Example 259, 4-{6-[2-(4-Bromo-2,6-difluoro-phenyl)-ethylamino]-pyrimidin-4-yl}-2-cyclopropoxy-benzoic acid] | 45 | 76 | 351 | 46
CCOc1cc(C(F)(F)F)ccc1CCNc1cc(-c2cc(OCC)c(C(=O)O)s2)ncn1 [Example 215, 3-Ethoxy-5-{6-[2-(2-ethoxy-4-trifluoromethyl-phenyl)-ethylamino]-pyrimidin-4-yl}-thiophene-2-carboxylic acid] | 12 | 8 | 3 | 10
CCOc1cc(-c2cc(NCCc3c(F)ccc(Cl)c3F)ncn2)sc1-c1noc(=O)[nH]1 [Example 98, 3-(5-{6-[2-(3-Chloro-2,6-difluoro-phenyl)-ethylamino]-pyrimidin-4-yl}-3-ethoxy-thiophen-2yl)-[1,2,4]oxadiazol-5(4H)-one] | 83 | 50 | 14 | 53
CCOc1cc(-c2cc(NCCc3c(F)cc(Br)cc3F)ncn2)sc1-c1nnc(O)o1 [Example 152, 5-(5-{6-[2-(4-bromo-2,6-difluoro-phenyl)-ethylamino]-pyrimidin-4-yl}-3-ethoxy-thiophen-2-yl)-[1,3,4]-oxadiazol-2-ol] | 9 | 30 | 5 | 12
CCOc1cc(-c2cc(NCCc3c(F)cc(Br)cc3F)ncn2)ccc1NC=O [Example 240, N-(4-{6-[2-(4-Bromo-2,6-difluoro-phenyl)-ethylamino]-pyrimidin-4-yl}-2-ethoxy-phenyl)-formamide] | 511 | 405 | 72 | 127
CCOc1cc(-c2cc(NCCc3ccccc3Cl)ncn2)sc1C(=O)O [Example 78, 5-{6-[2-(2-Chloro-phenyl)-ethylamino]-pyrimidin-4-yl}-3-ethoxy-thiophene-2-carboxylic acid] | 149 | 458 | – | 176
CCOc1cc(-c2cc(NCCc3c(C)cccc3OC)ncn2)sc1C(=O)O [Example 178, 3-Ethoxy-5-{6-[2-(2-methoxy-6-methyl-phenyl)-ethylamino]-pyrimidin-4-yl}-thiophene-2-carboxylic acid] | 10 | 134 | 404 | 29
O=c1[nH]c(-c2ccc(-c3cc(NCCc4c(F)cc(Br)cc4F)ncn3)cc2)no1 [Example 235, 3-(4-{6-[2-(4-Bromo-2,6-difluoro-phenyl)-ethylamino]-pyrimidin-4-yl}-phenyl)-[1,2,4]oxadiazol-5(4H)-one] | 203 | 149 | 89 | 43
CCOc1cc(-c2cc(NCCc3cc(Br)ccc3OC)ncn2)sc1-c1noc(=O)[nH]1 [Example 120, 3-(5-{6-[2-(5-Bromo-2-methoxy-phenyl)-ethylamino]-pyrimidin-4-yl}-3-ethoxy-thiophen-2yl)-[1,2,4]oxadiazol-5(4H)-one] | 13 | 69 | 21 | 35
CCOc1c(C(=O)O)sc(-c2cc(NCCc3c(F)cc(Br)cc3F)ncn2)c1Cl [Example 27, 5-{6-[2-(4-Bromo-2,6-difluoro-phenyl)-ethylamino]-pyrimidin-4-yl}-4-chloro-3-ethoxy-thiophene-2-carboxylic acid] | 50 | 97 | 168 | 23
O=C(O)c1[nH]c(-c2cc(NCCc3c(F)cc(Br)cc3F)ncn2)cc1C1CC1 [Example 271, 5-{6-[2-(4-Bromo-2,6-difluoro-phenyl)-ethylamino]-pyrimidin-4-yl}-3-cyclopropyl-1H-pyrrole-2-carboxylic acid] | 151 | 1760 | 380 | 36
CNc1cc(-c2cc(NCCc3c(F)cc(Br)cc3F)ncn2)ccc1-c1noc(=O)[nH]1 [Example 296, 3-(4-{6-[2-(4-Bromo-2,6-difluoro-phenyl)-ethylamino]-pyrimidin-4-yl}-2-methylamino-phenyl)-[1,2,4]oxadiazol-5(4H)-one] | 44 | 14 | 9 | 12
CCOc1cc(-c2cc(NCCc3c(F)cc(Br)cc3F)nc(C)n2)sc1-c1noc(=O)[nH]1 [Example 156, 3-(5-{6-[2-(4-Bromo-2,6-difluoro-phenyl)-ethylamino]-2-methyl-pyrimidin-4-yl}-3-ethoxy-thiophen-2-yl)-[1,2,4]oxadiazol-5(4H)-one] | 28 | 16 | 31 | 9
CCOc1cc(Br)ccc1CCNc1cc(-c2ccc(C(=O)O)c(OCC)c2)ncn1 [Example 51, 4-{6-[2-(4-Bromo-2-ethoxy-phenyl)-ethylamino]-pyrimidin-4-yl}-2-ethoxy-benzoic acid] | 72 | 684 | – | 39
CCOc1cc(-c2cc(NCCc3ccccc3Br)ncn2)sc1C(=O)O [Example 70, 5-{6-[2-(2-Bromo-phenyl)-ethylamino]-pyrimidin-4-yl}-3-ethoxy-thiophene-2-carboxylic acid] | 139 | 554 | – | 260
